In brackets after ≈: the same amount, converted by molar mass. Read-outs that look alike come from different tables or passages of the source. One block for each compound: values may come before it.
What was measured:
guinea-pig ureters = experiment: Antispastic activity in vitro: spontaneous motility of guinea-pig ureters; conditions: Cavia porcellus
Text: The isotonic contractions were detected by means of a force transducer and recorded. […] A given concentration of the product under test was then introduced into the bath and left in contact with the prepared specimen for five minutes, after which the ureter was washed until its own spontaneous activity was re-established.

mouse = experiment: Anxiolytic activity in the mouse, Black and White Box test; type: in vivo; conditions: for TOTAL MOV.: five minutes
Protocol: In order to confirm the hypothesis that the potent activity of some of the compounds of the invention against central CCK-B may be correlated with a possible anxiolytic activity, this potential activity was evaluated in the mouse with the use of the "Black and White Box test". This experimental model, which was carried out according to Costall et al. [Pharm. Biochem. Behav. 32 (1989), 777-785] used a box with dimensions of 45×21×21 (h) cm. divided into two compartments which communicated with each other by means of a 13×5 cm hole. The smaller compartment (1/3 of the total area) had black walls, whereas the larger had transparent walls and was illuminated by a lamp which was placed 20 cm above the box and supplied light at 20 W. Under the floor was an activity meter which registered the movements performed by the animal in the individual compartments. The experiment was started by placing the animal in the centre of the illuminated box; as well at its movements, the time which the animal spent in the dark and in the light and the number of times it moved between the 2 compartments were recorded for five minutes. In general, a control animal tended preferably to stay in the dark compartment where it felt better protected from an unusual enviromental situation which put it in a state of anxiety. In this experimental model ( see the reference cited above), a compound having anxiolytic activity decreased the % of movements into the dark in comparison with the total movements, increased the movements between the two light-dark compartments, and increased the % of the total time time spent in the light. The results obtained are given in Table 5 below in which the activities obtained with the compound 1 (the rectus series ) and its enantiomer 2 (sinister) tested in comparison with diazepam and the CCK-B antagonist L365-260.

[1] = target: T1, central CCK-B receptors (guinea pig cortical membrane) (Cavia porcellus, UniProt H0VZC5); experiment: Inhibition of binding of (3-H)[N-methyl-N-leucine]CCK-8 to guinea pig cortical membranes (anti-CCK-B)
T1 construct: Cerebral cortices of white male guinea pigs were therefore used; from tissue; host or cells: guinea pig cerebral cortex membranes
T1 sequence (H0VZC5 1-426): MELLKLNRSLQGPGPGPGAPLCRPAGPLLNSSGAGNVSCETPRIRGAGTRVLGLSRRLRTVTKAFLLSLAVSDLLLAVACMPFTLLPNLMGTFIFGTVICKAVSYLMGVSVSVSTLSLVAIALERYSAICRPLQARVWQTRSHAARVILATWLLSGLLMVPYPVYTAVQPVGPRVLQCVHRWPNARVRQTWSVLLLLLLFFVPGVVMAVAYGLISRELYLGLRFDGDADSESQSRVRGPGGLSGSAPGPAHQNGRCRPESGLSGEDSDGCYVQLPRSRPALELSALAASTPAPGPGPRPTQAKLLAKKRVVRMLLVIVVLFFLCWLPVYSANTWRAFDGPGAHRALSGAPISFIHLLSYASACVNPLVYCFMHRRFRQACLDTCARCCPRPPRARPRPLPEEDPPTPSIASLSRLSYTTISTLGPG
Protocol: Cerebral cortices of white male guinea pigs were therefore used, according to the method mentioned above, so as to obtain a membrane content/ml corresponding to about 300 mcg of proteins/mi. The membranes were incubated together with the radioactive tracer and the compounds under test for 150 minutes at 25° C. After the supernatant liquid had been discarded, the radioactivity associated with the pellet was determined with a liquid scintillator.

[2] = force of the contractions, five minutes contact, 37° C., read-out: IC50 (force), inhibition of the spontaneous motility of guinea-pig ureters in vitro
[3] = frequency of the contractions, five minutes contact, 37° C., read-out: IC50 (frequency), inhibition of the spontaneous motility of guinea-pig ureters in vitro
[4] = read-out: IC50 (force), inhibition of the spontaneous motility of guinea-pig ureters in vitro
[5] = read-out: IC50 (frequency), inhibition of the spontaneous motility of guinea-pig ureters in vitro

- IC50 (guinea-pig ureters; [2]): 12 µg/mL (≈ 22.7 µM)
- IC50 (guinea-pig ureters; [3]): 12 µg/mL (≈ 22.7 µM)
Structure (SMILES): CCCCCN(CCCCC)C(=O)C(CCC(=O)NCCN1CCOCC1)NC(=O)c1ccc(C#N)cc1 (stereo not drawn) [Compound 34]

Structure (SMILES): COc1ccc(CCN(C)CCCC(C#N)(c2ccc(OC)c(OC)c2)C(C)C)cc1OC (stereo not drawn) [Verapamil, reference compound]
- IC50 (guinea-pig ureters; [4]): 3 µg/mL (≈ 6.6 µM)
- IC50 (guinea-pig ureters; [5]): 2.2 µg/mL (≈ 4.84 µM)

- IC50 (guinea-pig ureters; [2]): 18 µg/mL (≈ 34.8 µM)
- IC50 (guinea-pig ureters; [3]): 16 µg/mL (≈ 31 µM)
Structure (SMILES): CCCCCN(CCCCC)C(=O)C(CCC(=O)NCCN1CCOCC1)NC(=O)c1ccc(C)cc1 (stereo not drawn) [Compound 33]

- IC50 (guinea-pig ureters; [2]): 14 µg/mL (≈ 26.5 µM)
- IC50 (guinea-pig ureters; [3]): 19 µg/mL (≈ 35.9 µM)
Structure (SMILES): CCCCCN(CCCCC)C(=O)C(CCC(=O)NCC1CCCN1CC)NC(=O)c1ccc(C)c(C)c1 (stereo not drawn) [Compound 58]

Structure (SMILES): Cc1cccc(NC(=O)N[C@@H]2N=C(c3ccccc3)c3ccccc3N(C)C2=O)c1 [Compound L-365-260, reference compound]
- LIGHT TIME (%) TOTAL TIME (mouse; 0.01 mg/kg IP): 27.0%
- LIGHT TIME (%) TOTAL TIME: % EFF.VS CONTROL (mouse; 0.01 mg/kg IP): 0%
- LIGHT-DARK MOVEMENTS (mouse; 0.01 mg/kg IP): 14.2
- LIGHT-DARK MOVEMENTS: % EFF. VS CONTROL (mouse; 0.01 mg/kg IP): -12%
- MOV. DARK (%) TOTAL MOV. (mouse; 0.01 mg/kg IP): 57%
- MOV. DARK (%) TOTAL MOV.: % EFF. VS CONTROL (mouse; 0.01 mg/kg IP): 12%
- TOTAL MOV. (mouse; 0.01 mg/kg IP): 417
- LIGHT TIME (%) TOTAL TIME (mouse; 0.1 mg/kg IP): 31.8%
- LIGHT TIME (%) TOTAL TIME: % EFF.VS CONTROL (mouse; 0.1 mg/kg IP): 18%
- LIGHT-DARK MOVEMENTS (mouse; 0.1 mg/kg IP): 13.3
- LIGHT-DARK MOVEMENTS: % EFF. VS CONTROL (mouse; 0.1 mg/kg IP): -18%
- MOV. DARK (%) TOTAL MOV. (mouse; 0.1 mg/kg IP): 54%
- MOV. DARK (%) TOTAL MOV.: % EFF. VS CONTROL (mouse; 0.1 mg/kg IP): 18%
- TOTAL MOV. (mouse; 0.1 mg/kg IP): 446
- anxiolytic activity in the Black and White Box test (in words) (mouse; IP): active at a dose of 0.1 mg/kg but only for the parameter which relates to the increase in the time spent in the light

- IC50 (guinea-pig ureters; [2]): 100 µg/mL (≈ 158 µM)
- IC50 (guinea-pig ureters; [3]): 100 µg/mL (≈ 158 µM)
Structure (SMILES): CCCCCN(CCCCC)C(=O)C(CCC(=O)NCCCN1CCN(Cc2ccccc2)CC1)NC(=O)c1ccc(C)c(C)c1 (stereo not drawn) [Compound 51]

- IC50 (guinea-pig ureters; [2]): 11 µg/mL (≈ 20.8 µM)
- IC50 (guinea-pig ureters; [3]): 18 µg/mL (≈ 34 µM)
- IC50 ([1]; IC50, inhibition of binding of (3-H)[N-methyl-N-leucine]CCK-8 to the guinea pig cortical membrane, 150 minutes at 25° C.): > 100000 nM
Structure (SMILES): CCCCCN(CCCCC)C(=O)C(CCC(=O)NCCN1CCCCC1)NC(=O)c1ccc(C)c(C)c1 (stereo not drawn) [Compound 55]

- IC50 (guinea-pig ureters; [2]): 36 µg/mL (≈ 78.1 µM)
Structure (SMILES): CCCCN(CCCC)C(=O)C(CCC(=O)NCCN(C)C)NC(=O)c1ccc(C)c(C)c1 (stereo not drawn) [Compound 25]

- IC50 (guinea-pig ureters; [2]): 8 µg/mL (≈ 14 µM)
- IC50 (guinea-pig ureters; [3]): 7 µg/mL (≈ 12.2 µM)
Structure (SMILES): CCCCCN(CCCCC)C(=O)C(CCC(=O)NCCN1CCOCC1)NC(=O)c1ccc(Cl)c(Cl)c1 (stereo not drawn) [Compound 37]

- IC50 (guinea-pig ureters; [2]): 29 µg/mL (≈ 74.1 µM)
Structure (SMILES): Cc1c(-c2ccccc2)oc2c(C(=O)OCCN3CCCCC3)cccc2c1=O [Flavoxate, reference compound]

Structure (SMILES): COc1ccc(Cc2nccc3cc(OC)c(OC)cc23)cc1OC [Papaverine, reference compound]
- IC50 (guinea-pig ureters; [4]): 23 µg/mL (≈ 67.8 µM)
- IC50 (guinea-pig ureters; [5]): 27 µg/mL (≈ 79.6 µM)

- IC50 (guinea-pig ureters; [2]): 23 µg/mL (≈ 45.9 µM)
Structure (SMILES): CCCCN(CCCC)C(=O)C(CCC(=O)NCC1CCCN1CC)NC(=O)c1ccc(C)c(C)c1 (stereo not drawn) [Compound 31]

- IC50 (guinea-pig ureters; [2]): 59 µg/mL (≈ 111 µM)
Structure (SMILES): CCCCCN(CCCOC)C(=O)C(CCC(=O)NCCN1CCOCC1)NC(=O)c1ccc(C)c(C)c1 (stereo not drawn) [Compound 64]

- IC50 (guinea-pig ureters; [2]): 18 µg/mL (≈ 34.8 µM)
- IC50 (guinea-pig ureters; [3]): 17 µg/mL (≈ 32.9 µM)
Structure (SMILES): CCCCN(CCCC)C(=O)C(CCC(=O)NCCCN1CCOCC1)NC(=O)c1ccc(C)c(C)c1 (stereo not drawn) [Compound 29]

Structure (SMILES): CSCC[C@H](NC(=O)[C@H](Cc1c[nH]c2ccccc12)NC(=O)CCNC(=O)OC(C)(C)C)C(=O)N[C@@H](CC(=O)O)C(=O)N[C@@H](Cc1ccccc1)C(N)=O [pentagastrin, reference compound]
- IC50 [1]: 3 nM
